Assays:
[1] = Ames MPF Penta 2 microplate mutagenicity assay, TA100; assay type: cell-based; conditions: Salmonella typhimurium, read-out: FIB (fold induction over baseline)
Procedure: (§1) The assay is a liquid microplate modification of the traditional Salmonella test. During the procedure, bacteria are exposed to different concentrations of a test compound for 90 min in a medium containing sufficient histidine (S. typhimurium) or tryptophan (E. coli) to support cell divisions. Then, the cultures are diluted in pH indicator medium lacking histidine or tryptophan and aliquoted into 48 wells of a 384-well plate. Within 48 hours, cells that have undergone reversion to amino acid prototrophy will grow into colonies. Bacterial metabolism reduces pH of the medium, changing the color of that well from purple to yellow (https://www.xenometrix.ch).
(§2) The following strains were used in the study: S. typhimurium TA98, TA100, TA1535, TA1537 and E. coli wp2 uvrA[pKM101]. TA100, TA1535 and E. coli strains are used for the detection of base substitution mutations, whereas TA98 and TA1537 are utilized for the detection of frameshift mutations. S. typhimurium strains have GC base pairs, whereas E. coli strain has AT base pair at their primary reversion site and detect certain oxidizing mutagens, cross-linking agents and hydrazines.
(§3) The test procedure provided by Xenometrix (https://www.xenometrix.ch) and described earlier was followed. Briefly, the bacterial strains were grown overnight in exposure medium and exposed to test compounds 4g and 3b in 24-well plates for 90 min at 37 °C with agitation in the absence (–S9) or presence (+S9) of 4.5% phenobarbital/ β-naphthoflavone-induced rat liver S9. Compounds 4g and 3b were dissolved in DMSO and tested at final concentrations of 0.1, 0.2 and 0.5 mM. After the preincubation, the cultures were diluted in the indicator medium and the contents of each 24-well culture were distributed into 48 wells on a 384-well plate and incubated further for 48 h at 37 °C without agitation. After the exposure, the number of wells containing bacteria was scored by eye for yellow wells. Positive and negative controls were included in the assay, and all doses were done in triplicate.
(§4) Pure DMSO was used as the negative control.
(§5) The fold increase of revertants relative to the solvent control was determined by dividing the mean number of positive wells at each dose by the solvent control at baseline. The solvent control at baseline was defined as the mean number of positive wells in the solvent control plus one standard deviation (SD). When an increase of more than 2-fold relative to the baseline at more than one dose with a dose–response is observed the sample is classified as positive, whereas when no response >2 times the baseline and no dose–response is stated the sample is negative.

[2] = In vitro photoprotection study of 2% (w/w) macrogol formulations on PMMA plates; conditions: for UVA PF / UVA/UVB Ratio / λc (critical wavelength): 2% (w/w) macrogol formulation F1 (Triacetin 4.8%); for SPFin vitro: 2% (w/w) macrogol formulation F1 (Tween 20, PEG-400, PEG-1500, Triacetin 4.8%)
Summary of the method: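 Compounds at 2% in macrogol (PEG-400/PEG-1500) formulations, predissolved in triacetin:Tween 20 (1:9) or DMSO; 32.5 mg applied to 25 cm² PMMA plates (5 µm roughness), glycerin-treated plate as reference. Per EN ISO 24443:2012, modified: reflectance absorbance 290–400 nm in 1 nm steps, averaged over 12 scans.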

[3] = Ames MPF Penta 2 microplate mutagenicity assay, E. coli; assay type: cell-based; conditions: Escherichia coli, read-out: FIB (fold induction over baseline)
Procedure: as §1, §2, §3, §4, §5

[4] = S. typhimurium TA100 without S9 (–S9), TA100, –S9, 0.1 mM
[5] = S. typhimurium TA100 without S9 (–S9), TA100, –S9, 0.2 mM
[6] = S. typhimurium TA100 without S9 (–S9), TA100, –S9, 0.5 mM
[7] = E. coli wp2 uvrA[pKM101] without S9 (–S9), E. coli WP2, –S9, 0.1 mM
[8] = E. coli wp2 uvrA[pKM101] without S9 (–S9), E. coli WP2, –S9, 0.2 mM
[9] = E. coli wp2 uvrA[pKM101] without S9 (–S9), E. coli WP2, –S9, 0.5 mM

| Compound | fold induction at 90 min, 0.1 mM [1, 4] | fold induction at 90 min, 0.2 mM [1, 5] | fold induction at 90 min, 0.5 mM [1, 6] | fold induction at 90 min, 0.1 mM ([1]; TA100, +S9, 0.1 mM) | fold induction at 90 min, 0.2 mM ([1]; TA100, +S9, 0.2 mM) | fold induction at 90 min, 0.5 mM ([1]; TA100, +S9, 0.5 mM) | UVA PF [2] | UVA/UVB Ratio [2] | λc (critical wavelength) [2] [nm] | SPFin vitro [2] | fold induction at 90 min, 0.1 mM [3, 7] | fold induction at 90 min, 0.2 mM [3, 8] | fold induction at 90 min, 0.5 mM [3, 9] | fold induction at 90 min, 0.1 mM ([3]; E. coli WP2, +S9, 0.1 mM) | fold induction at 90 min, 0.2 mM ([3]; E. coli WP2, +S9, 0.2 mM) | fold induction at 90 min, 0.5 mM ([3]; E. coli WP2, +S9, 0.5 mM) |
| --- | --- | --- | --- | --- | --- | --- | --- | --- | --- | --- | --- | --- | --- | --- | --- | --- |
| CCOC(=O)CN1C(=O)/C(=C/c2ccc(OC)cc2)N(CC(=O)OCC)C1=O [Compound 3b, Diethyl 2,2′-((Z)-4-(4-methoxybenzylidene)-2,5-dioxoimidazolidine-1,3-diyl)diacetate] | 1.1 | 0.8 | 0.7 | 0.7 | 0.6 | 0.6 | 2.59 ± 0.23 | 0.84 ± 0.08 | 366 | 3.07 ± 0.04 | 0.3 | 0.7 | 0.3 | 0.7 | 0.6 | 0.4 |
| CCOC(=O)CN1C(=O)/C(=C/C=C/c2ccc(OC)cc2)N(CC(=O)OCC)C1=O [Compound 4g, Diethyl 2,2′-((Z)-4-((E)-3-(4-methoxyphenyl)allylidene)-2,5-dioxoimidazolidine-1,3-diyl)diacetate] | 1.1 | 0.3 | 0.6 | 0.7 | 0.5 | 0.5 | 6.83 ± 0.05 | 4.50 ± 0.32 | 391 | 1.68 ± 0.04 | 0.3 | 1.3 | 1.3 | 0.6 | 1 | 0.7 |

From paper PMC6630718, “Discovery of Novel UV-Filters with Favorable Safety Profiles in the 5-Arylideneimidazolidine-2,4-dione Derivatives Group” (Molecules, 2019)
